In the NIST ThermoML archive (doi:10.1016/j.fluid.2010.03.042):

Test: xn = mol fraction of the nth substance listed
Settings: Liquid, Vibrating tube method

CCC(C)O (centres undefined) [butan-2-ol] + O=C=O
Settings | mass density [kg/m3]
313.21 K, x2 = 0.166 | 795.6
313.21 K, x2 = 0.2247 | 807.4
313.21 K, x2 = 0.3339 | 813.7
313.21 K, x2 = 0.435 | 816.8
313.21 K, x2 = 0.5177 | 818.9
313.21 K, x2 = 0.6282 | 818.5
313.21 K, x2 = 0.7453 | 817.2
313.21 K, x2 = 0.7457 | 817.5
313.21 K, x2 = 0.8604 | 815.4
313.21 K, x2 = 0.9197 | 813.8
333.12 K, x2 = 0.137 | 771.6
333.12 K, x2 = 0.2174 | 782.3
333.12 K, x2 = 0.3029 | 786.1
333.12 K, x2 = 0.3944 | 790.2
333.12 K, x2 = 0.4533 | 791.8
333.12 K, x2 = 0.5642 | 790.7
333.12 K, x2 = 0.6485 | 787.2
333.12 K, x2 = 0.7937 | 775.5
333.12 K, x2 = 0.8376 | 758.6
363.06 K, x2 = 0.1273 | 743.6
363.06 K, x2 = 0.1978 | 746.7
363.06 K, x2 = 0.2588 | 747.7
363.06 K, x2 = 0.2793 | 748.3
363.06 K, x2 = 0.3584 | 743.8
363.06 K, x2 = 0.4344 | 738.3
363.06 K, x2 = 0.5565 | 709.3
363.06 K, x2 = 0.6978 | 647.2
363.06 K, x2 = 0.7871 | 611.7

CCCCO [butan-1-ol] + O=C=O
Settings | mass density [kg/m3]
313.22 K, x2 = 0.1294 | 806.8
313.22 K, x2 = 0.2204 | 816.8
313.22 K, x2 = 0.2354 | 818.6
313.22 K, x2 = 0.3409 | 823.7
313.22 K, x2 = 0.4311 | 826.1
313.22 K, x2 = 0.5847 | 827.7
313.22 K, x2 = 0.8543 | 797
363.17 K, x2 = 0.1186 | 711.3
363.17 K, x2 = 0.1985 | 762
363.17 K, x2 = 0.2821 | 764.7
363.17 K, x2 = 0.3623 | 765.5
363.17 K, x2 = 0.4604 | 765.5
363.17 K, x2 = 0.5637 | 760.6
363.17 K, x2 = 0.6867 | 750.9
363.17 K, x2 = 0.7105 | 745.8
363.17 K, x2 = 0.7597 | 726.6
